Results reported in patent publication US9833497B2, “Human originated EGF domain proteins and use of the same” (CHENGDU SOURCEBIO LIMITED-LIABILITY COMPANY, priority 2013, dated 2017).

Tests used:
Format in all cases: cell-based
[1] = test system: Pseudomonas aeruginosa; experiment: MIC against Gram-negative bacteria: Pseudomonas aeruginosa
Method in brief: (§1)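 Antibacterial activity of purified human EGF domain proteins: two-fold concentration series, triplicate wells, LB broth, 5×10^5 CFU/mL bacteria, 37° C shaking incubation. The lowest concentration without growth defines the MIC.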

[2] = test system: Klebsiella pneumonia; experiment: MIC against Gram-negative bacteria: Klebsiella pneumonia
Method in brief: as §1

[3] = test system: Serratia marcescens; experiment: MIC against Gram-negative bacteria: Serratia marcescens
Method in brief: as §1

[4] = test system: Moraxella catarrhalis; experiment: MIC against Gram-negative bacteria: Moraxella catarrhalis
Method in brief: as §1

[5] = test system: Citrobacter diversus; experiment: MIC against Gram-negative bacteria: Citrobacter diversus
Method in brief: as §1

[6] = test system: E. coli BL21; experiment: MIC against Gram-negative bacteria: E. coli BL21
Method in brief: as §1

[7] = test system: Aeromonas hydrophila; experiment: MIC against Gram-negative bacteria: Aeromonas hydrophila
Method in brief: as §1

[8] = test system: E. coli DH5α; experiment: Antibacterial activity: MIC and growth curve against E. coli DH5α in 96-well plate; conditions: minimal inhibitory concentration against E. coli DH5α; 96-well plate, 5×10^5 CFU/mL, 37° C., judged after 8 h
Method in brief: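 Log-phase bacteria (OD600 ~0.5) resuspended in LB at 5×10^5 CFU/mL, exposed to recombinant protein at 50, 25, 12.5 μg/mL final in triplicate, 37 °C shaking at 175 rpm. OD600 read every 30 min; MIC is lowest concentration showing no growth.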

[9] = test system: Proteus mirabilis; experiment: MIC against Gram-negative bacteria: Proteus mirabilis
Method in brief: as §1

[10] = test system: Proteus vulgaris; experiment: MIC against Gram-negative bacteria: Proteus vulgaris
Method in brief: as §1

[11] = test system: Enterobacter cloacae; experiment: MIC against Gram-negative bacteria: Enterobacter cloacae
Method in brief: as §1

[12] = 96-well plate, 5×10^5 CFU/mL, 37° C., 10 h
[13] = Pseudomonas aeruginosa, 5×10^5 CFU/mL, 10 h cultivation at 37° C.
[14] = Klebsiella pneumonia, 5×10^5 CFU/mL, 10 h cultivation at 37° C.
[15] = Serratia marcescens, 5×10^5 CFU/mL, 10 h cultivation at 37° C.
[16] = Moraxella catarrhalis, 5×10^5 CFU/mL, 10 h cultivation at 37° C.
[17] = Citrobacter diversus, 5×10^5 CFU/mL, 10 h cultivation at 37° C.
[18] = E. coli BL21, 5×10^5 CFU/mL, 10 h cultivation at 37° C.
[19] = Aeromonas hydrophila, 5×10^5 CFU/mL, 10 h cultivation at 37° C.
[20] = Proteus mirabilis, 5×10^5 CFU/mL, 10 h cultivation at 37° C.
[21] = Proteus vulgaris, 5×10^5 CFU/mL, 10 h cultivation at 37° C.
[22] = Enterobacter cloacae, 5×10^5 CFU/mL, 10 h cultivation at 37° C.
[23] = 10 h cultivation at 37° C., 5×10^5 CFU/mL, two-fold serial dilution

PRT460 (DRDECSGGPSPCSHACLNAPGRFSCTCPTGFALAWDDRNCR; listed as Homo sapiens)
50 µg/mL: MIC against C. diversus [5, 12] | MIC [8] | MIC against P. vulgaris [10, 12] | MIC against E. cloacae [11, 12]
25 µg/mL: MIC against K. pneumonia [2, 12] | MIC against M. catarrhalis [4, 12] | MIC against E. coli BL21 [6, 12]
12.5 µg/mL: MIC against P. aeruginosa [1, 12] | MIC against S. marcescens [3, 12] | MIC against A. hydrophila [7, 12] | MIC against P. mirabilis [9, 12]

PRT1263 (DVDECAQGLDDCHADALCQNTPTSYKCSCKPGYQGEGRQCE; listed as Homo sapiens)
50 µg/mL: MIC against S. marcescens ([3]; Serratia marcescens, 96-well plate, 5×10^5 CFU/mL, 37° C., 10 h) | MIC against C. diversus ([5]; Citrobacter diversus, 96-well plate, 5×10^5 CFU/mL, 37° C., 10 h) | MIC against E. coli BL21 ([6]; E. coli BL21, 96-well plate, 5×10^5 CFU/mL, 37° C., 10 h) | MIC against P. mirabilis ([9]; Proteus mirabilis, 96-well plate, 5×10^5 CFU/mL, 37° C., 10 h) | MIC against E. cloacae ([11]; Enterobacter cloacae, 96-well plate, 5×10^5 CFU/mL, 37° C., 10 h)
100 µg/mL: MIC [8]
12.5 µg/mL: MIC against P. aeruginosa ([1]; Pseudomonas aeruginosa, 96-well plate, 5×10^5 CFU/mL, 37° C., 10 h) | MIC against M. catarrhalis ([4]; Moraxella catarrhalis, 96-well plate, 5×10^5 CFU/mL, 37° C., 10 h) | MIC against A. hydrophila ([7]; Aeromonas hydrophila, 96-well plate, 5×10^5 CFU/mL, 37° C., 10 h) | MIC against P. vulgaris ([10]; Proteus vulgaris, 96-well plate, 5×10^5 CFU/mL, 37° C., 10 h)
25 µg/mL: MIC against K. pneumonia ([2]; Klebsiella pneumonia, 96-well plate, 5×10^5 CFU/mL, 37° C., 10 h)

PRT1390 (EEDCLDPMCSNHGICVKGECHCSTGWGGVNCET; listed as Homo sapiens)
50 µg/mL: MIC against K. pneumonia [2, 14] | MIC against S. marcescens [3, 15] | MIC against M. catarrhalis [4, 16] | MIC against A. hydrophila [7, 19] | MIC against P. vulgaris [10, 21]
12.5 µg/mL: MIC against P. aeruginosa [1, 13] | MIC against E. coli BL21 [6, 18] | MIC [8] | MIC against E. cloacae [11, 22]
25 µg/mL: MIC against C. diversus [5, 17] | MIC against P. mirabilis [9, 20]

PRT474 (QADPCQPNPCEHGGDCLVHGSTFTCSCLAPFSGNKCQ; listed as Homo sapiens)
12.5 µg/mL: MIC against S. marcescens [3, 12] | MIC against C. diversus [5, 12] | MIC [8] | MIC against P. mirabilis [9, 12]
25 µg/mL: MIC against P. aeruginosa [1, 12] | MIC against K. pneumonia [2, 12] | MIC against E. coli BL21 [6, 12] | MIC against E. cloacae [11, 12]
50 µg/mL: MIC against M. catarrhalis [4, 12] | MIC against A. hydrophila [7, 12] | MIC against P. vulgaris [10, 12]

PRT1157 (DVSEFSLVPCQNGTDCIKISNDVMCICSPIFTDLLCK; listed as Homo sapiens)
50 µg/mL: MIC P. aeruginosa [1, 23] | MIC S. marcescens [3, 23] | MIC C. diversus [5, 23]
25 µg/mL: MIC K. pneumonia [2, 23] | MIC M. catarrhalis [4, 23] | MIC E. coli BL21 [6, 23] | MIC A. hydrophila [7, 23] | MIC P. vulgaris [10, 23]
12.5 µg/mL: MIC [8] | MIC P. mirabilis [9, 23] | MIC E. cloacae [11, 23]

PRT1351 (TAVCQSPCLNGGKCVRPNRCHCLSSWTGHNCS; listed as Homo sapiens)
50 µg/mL: MIC against P. aeruginosa [1, 13]
12.5 µg/mL: MIC against S. marcescens [3, 15] | MIC against C. diversus [5, 17] | MIC against A. hydrophila [7, 19] | MIC against P. mirabilis [9, 20] | MIC against E. cloacae [11, 22]
25 µg/mL: MIC against K. pneumonia [2, 14] | MIC against M. catarrhalis [4, 16] | MIC against E. coli BL21 [6, 18] | MIC [8] | MIC against P. vulgaris [10, 21]

PRT995 (ETNECASAPCLNHADCHDLLNGFQCICLPGFSGTRCE; listed as Homo sapiens)
25 µg/mL: MIC ([5]; C. diversus, 10 h cultivation at 37° C.) | MIC ([9]; P. mirabilis, 10 h cultivation at 37° C.)
12.5 µg/mL: MIC ([1]; P. aeruginosa, 10 h cultivation at 37° C.) | MIC ([3]; S. marcescens, 10 h cultivation at 37° C.) | MIC ([4]; M. catarrhalis, 10 h cultivation at 37° C.) | MIC [8] | MIC ([11]; E. cloacae, 10 h cultivation at 37° C.)
50 µg/mL: MIC ([2]; K. pneumonia, 10 h cultivation at 37° C.) | MIC ([6]; E. coli BL21, 10 h cultivation at 37° C.) | MIC ([7]; A. hydrophila, 10 h cultivation at 37° C.) | MIC ([10]; P. vulgaris, 10 h cultivation at 37° C.)
